# Assay results from patent US20250268884A1, “Deuterated Domperidone for Treating Gastroparesis” (CinDome Pharma, Inc., priority 2022, published 2025).
# Tested on: adults with idiopathic or diabetic gastroparesis
# Assay: ANMS GCSI-DD total and subscale scores, ANMS GCSI-DD manual scoring method, Phase 2a
# Assay type: in vivo, human
# Conditions: mean, ITT Population
# From the text: As known in the art, the ANMS GCSI-DD covers 5 core relevant symptoms of gastroparesis: nausea, early satiety, postprandial fullness, upper abdominal pain and vomiting. Bloating is included as an exploratory symptom. Symptoms are rated on a severity numeric response scale from 0 (none) to 4 (very severe). Vomiting is captured on a frequency response scale and scored as follows: 0 for no episodes, 1 for one episode, 2 for 2 episodes, 3 for 3 episodes, and 4 for 4 or more episodes. In some embodiments, subjects recall symptoms over the previous 24 hours and completes the ANMS GCSI-DD patient-reported symptom questionnaire. In certain embodiments, the total ANMS GCSI-DD score is calculated as the mean of the 3 subscale scores for severity of nausea/vomiting, postprandial fullness/early satiety, and bloating. See, e.g., “The Use Manual for the ANMS GCSI-DD,” American Neurogastroenterology and Motility Society Gastroparesis Cardinal Symptom Index Daily Diary, 2018; https://www.fda.gov/media/125038/download. In other embodiments, the total ANMS GCSI-DD score is calculated using the ‘manual’ scoring method. The ANMS GCSI-DD manual scoring method is generated by summing the scores on each of the five symptom items (nausea, early satiety, postprandial fullness, upper abdominal pain, and number of vomiting episodes) and then dividing by 5, that is the number of items within the gastroparesis related symptom score. […] The ANMS GCSI-DD gastroparesis symptom daily score can range from 0 to 4. High scores on the ANMS GCSI-DD reflect greater symptom severity. See, e.g., “User Manuel for the ANMS GCSI-DD,” Federal Drug Administration at https://www.fda.gov/media/125038/download, which is hereby incorporated by reference.
# The severity scores of 4 gastroparesis-related symptoms (nausea, early satiety, postprandial fullness, upper abdominal pain) range from 0-none to 4-very severe. The vomiting score assesses the number of vomiting episodes during the day, capped at a maximum of 4; thus, the scores for vomiting range from 0 (no episodes of vomiting) to 4 (4 or more episodes of vomiting). Vomiting frequency is scored as 0 episodes, 1 episode, 2 episodes, 3 episodes, or 4 or more episodes (capped as 4).
# Table 11 presents the ANMS GCSI-DD total and subscale scores and change and percent change from baseline for the ITT Population using the ANMS GC SI-DD Manual scoring method. […] Subjects receiving placebo also experienced decreases in ANMS GCSI-DD total and subscale scores.
smiles,measurement,setting,value
"[2H]c1c([2H])c([2H])c2c([nH]c(=O)n2CCCN2CCC(n3c(=O)[nH]c4cc(Cl)ccc43)CC2)c1[2H] [Deudomperidone, 1-{3-[4-(5-chloro-2-oxo-2,3-dihydro-1H-1,3-benzodiazol-1-yl)piperidin-1yl]propyl}-2,3-dihydro(4,5,6,7-D4)-1H-1,3-benzodiazol-2-one]","ANMS GCSI-DD early satiety subscale score, Baseline",5 mg BID,2.63
same,"ANMS GCSI-DD early satiety subscale score, Change from baseline to Day 14/EOT",5 mg BID,−0.85
same,"ANMS GCSI-DD early satiety subscale score, Day 14/EOT",5 mg BID,1.78
same,"ANMS GCSI-DD early satiety subscale score, Percent change from baseline to Day 14/EOT",5 mg BID,−30.65%
same,"ANMS GCSI-DD nausea subscale score, Baseline",5 mg BID,2.59
same,"ANMS GCSI-DD nausea subscale score, Change from baseline to Day 14/EOT",5 mg BID,−0.93
same,"ANMS GCSI-DD nausea subscale score, Day 14/EOT",5 mg BID,1.67
same,"ANMS GCSI-DD nausea subscale score, Percent change from baseline to Day 14/EOT",5 mg BID,−41.32%
same,"ANMS GCSI-DD postprandial fullness subscale score, Baseline",5 mg BID,2.93
same,"ANMS GCSI-DD postprandial fullness subscale score, Change from baseline to Day 14/EOT",5 mg BID,−0.70
same,"ANMS GCSI-DD postprandial fullness subscale score, Day 14/EOT",5 mg BID,2.22
same,"ANMS GCSI-DD postprandial fullness subscale score, Percent change from baseline to Day 14/EOT",5 mg BID,−26.11%
same,"ANMS GCSI-DD total score, Baseline",5 mg BID,2.16
same,"ANMS GCSI-DD total score, Day 14/EOT",5 mg BID,1.47
same,"ANMS GCSI-DD total score, change from baseline to Day 14/EOT",5 mg BID,−0.69
same,"ANMS GCSI-DD total score, percent change from baseline to Day 14/EOT",5 mg BID,−35.01%
same,"ANMS GCSI-DD upper abdominal pain subscale score, Baseline",5 mg BID,2.19
same,"ANMS GCSI-DD upper abdominal pain subscale score, Change from baseline to Day 14/EOT",5 mg BID,−0.85
same,"ANMS GCSI-DD upper abdominal pain subscale score, Day 14/EOT",5 mg BID,1.33
same,"ANMS GCSI-DD upper abdominal pain subscale score, Percent change from baseline to Day 14/EOT",5 mg BID,−43.15%
same,"ANMS GCSI-DD vomiting subscale score, Baseline",5 mg BID,0.44
same,"ANMS GCSI-DD vomiting subscale score, Change from baseline to Day 14/EOT",5 mg BID,−0.11
same,"ANMS GCSI-DD vomiting subscale score, Day 14/EOT",5 mg BID,0.33
same,"ANMS GCSI-DD vomiting subscale score, Percent change from baseline to Day 14/EOT",5 mg BID,−64.00%
same,"ANMS GCSI-DD early satiety subscale score, Baseline",10 mg BID,2.67
same,"ANMS GCSI-DD early satiety subscale score, Change from baseline to Day 14/EOT",10 mg BID,−1.08
same,"ANMS GCSI-DD early satiety subscale score, Day 14/EOT",10 mg BID,1.62
same,"ANMS GCSI-DD early satiety subscale score, Percent change from baseline to Day 14/EOT",10 mg BID,−40.56%
same,"ANMS GCSI-DD nausea subscale score, Baseline",10 mg BID,2.52
same,"ANMS GCSI-DD nausea subscale score, Change from baseline to Day 14/EOT",10 mg BID,−1.20
same,"ANMS GCSI-DD nausea subscale score, Day 14/EOT",10 mg BID,1.34
same,"ANMS GCSI-DD nausea subscale score, Percent change from baseline to Day 14/EOT",10 mg BID,−48.88%
same,"ANMS GCSI-DD postprandial fullness subscale score, Baseline",10 mg BID,3.01
same,"ANMS GCSI-DD postprandial fullness subscale score, Change from baseline to Day 14/EOT",10 mg BID,−1.24
same,"ANMS GCSI-DD postprandial fullness subscale score, Day 14/EOT",10 mg BID,1.79
same,"ANMS GCSI-DD postprandial fullness subscale score, Percent change from baseline to Day 14/EOT",10 mg BID,−41.52%
same,"ANMS GCSI-DD total score, Baseline",10 mg BID,2.14
same,"ANMS GCSI-DD total score, Day 14/EOT",10 mg BID,1.17
same,"ANMS GCSI-DD total score, change from baseline to Day 14/EOT",10 mg BID,−0.98
same,"ANMS GCSI-DD total score, percent change from baseline to Day 14/EOT",10 mg BID,−44.07%
same,"ANMS GCSI-DD upper abdominal pain subscale score, Baseline",10 mg BID,1.79
same,"ANMS GCSI-DD upper abdominal pain subscale score, Change from baseline to Day 14/EOT",10 mg BID,−0.80
same,"ANMS GCSI-DD upper abdominal pain subscale score, Day 14/EOT",10 mg BID,0.97
same,"ANMS GCSI-DD upper abdominal pain subscale score, Percent change from baseline to Day 14/EOT",10 mg BID,−50.43%
same,"ANMS GCSI-DD vomiting subscale score, Baseline",10 mg BID,0.71
same,"ANMS GCSI-DD vomiting subscale score, Change from baseline to Day 14/EOT",10 mg BID,−0.59
same,"ANMS GCSI-DD vomiting subscale score, Day 14/EOT",10 mg BID,0.14
same,"ANMS GCSI-DD vomiting subscale score, Percent change from baseline to Day 14/EOT",10 mg BID,−71.73%
same,"ANMS GCSI-DD early satiety subscale score, Baseline",20 mg QD,2.64
